Measurements taken from ChEMBL document CHEMBL1149059, “Biological activity of some coumarins from Sri Lankan Rutaceae” (J Nat Prod, 1994).
≈ marks a conversion by molar mass, not a printed value.

Key:
[1] = test system: Saccharomyces cerevisiae; assay: DNA damaging activity against DNA repair-deficient yeast rad 52 assessed as drug level required to produce 12 mm zone of inhibition; assay type: functional
[2] = test system: Vero; assay: Cytotoxicity against african green monkey Vero cells after 7 days by XTT assay; assay type: cell-based; details: Chlorocebus sabaeus, 168 h
[3] = test system: Saccharomyces cerevisiae; assay: DNA damaging activity against DNA repair-deficient yeast rad 6 assessed as drug level required to produce 12 mm zone of inhibition; assay type: functional
[4] = test system: Saccharomyces cerevisiae; assay: DNA damaging activity against DNA repair-proficient yeast RAD+ assessed as drug level required to produce 12 mm zone of inhibition; assay type: functional
[5] = test system: Saccharomyces cerevisiae; assay: DNA damaging activity against DNA repair-deficient yeast rad 52Y assessed as drug level required to produce 12 mm zone of inhibition; assay type: functional

| SMILES | IC12 [1] | IC50 [2] | IC12 [3] | IC12 [4] | IC12 [5] |
| --- | --- | --- | --- | --- | --- |
| CC[C@@]1(O)C(=O)OCc2c1cc1n(c2=O)Cc2cc3ccccc3nc2-1 [CAMPTOTHECIN] | 0.6 µg/mL | 0.02 µg/mL (≈ 0.0574 µM) | 8.7 µg/mL | 110 µg/mL |  |
| CC1(C)C=Cc2c(ccc3ccc(=O)oc23)O1 [SESALIN] | 33 µg/mL | 12 µg/mL (≈ 52.6 µM) | 480 µg/mL | 220 µg/mL | 87 µg/mL |
| CC1(C)C=Cc2cc3ccc(=O)oc3cc2O1 [XANTHYLETIN] | 52 µg/mL | > 20 µg/mL | 318 µg/mL | 21 µg/mL | 87 µg/mL |
